# Source: patent US8426612B2, “Synthesis of 3-{[(2R)-1-methylpyrrolidin-2-yl]methyl}-5[2-(phenylsulfonyl)ethyl]-1H-indole” (F.I.S. Fabbrica Italiana Sintetici S.p.A., priority 2009, dated 2013)
# Key:
# [1] = Stability tests of Eletriptan hydrobromide Beta form polymorph in various solvents, temperatures and times; assay type: physicochemical; details: all experiments of the 1st table: various solvents, RT to 80° C. or heating, 5-48 hr; DSC trace
# Source text: Eletriptan hydrobromide Beta form obtained according to the inventive process has been subject to a series of experiments to assess its stability against the conversion into Form Alpha of higher melting point or in amorphous.
# These experiments have been performed in various solvents and at various temperature and time conditions. […] The DSC trace is the same for all the product prepared according to Example 18 and is the same of that of Beta polymorph.
# [2] = Prior-art experiments to convert Beta form to Alpha form or amorphous, repeated under exactly the same conditions; assay type: physicochemical; details: conditions of U.S. Pat. No. 6,110,940 (example 2) and WO2008/137134 (examples 16-19; 2, 7, 8, 12, 13)
# Procedure: In addition, the same experiments described in U.S. Pat. No. 6,110,940 (example 2) and WO2008/137134 (examples 16, 17, 18, 19) to convert Eletriptan Beta form to Alpha form and those described in WO2008/137134 (examples 2, 7, 8, 12 and 13) to convert Eletriptan Beta form to amorphous were carried out on Eletriptan Hydrobromide form Beta of invention, applying exactly the same conditions. […] There results confirms the stability of Eletriptan hydrobromide Beta form of invention and his different behaviour in comparison with the same form described in the State of the Art.
# [3] = DSC study with heating/cooling cycles to convert Beta form to other forms; assay type: physicochemical
# [4] = Hygroscopicity test as described in the European Pharmacopoeia 5.0; assay type: physicochemical; details: 25° C., 80% rel. humidity, 24 h
# Procedure: Eletriptan hydrobromide Beta stable form obtained according to the inventive process has been subject to the hygroscopicity test as described in the European Pharmacopoeia 5.0 (25° C., 80% rel. humidity, 24 h).
# [5] = reported in U.S. Pat. No. 6,110,940; converts into Form Alpha; cited from earlier work
Compound,"stability against conversion into Form Alpha, amorphous or other forms [1]",polymorphic form obtained [2],polymorphic form obtained [3],hygroscopicity (classification) [4],hygroscopicity (value) [4] [%],stability of polymorph [5]
"Br.CN1CCC[C@@H]1Cc1c[nH]c2ccc(CCS(=O)(=O)c3ccccc3)cc12 [Eletriptan hydrobromide Form Beta, 3-{[(2R)-1-methylpyrrolidin-2-yl]methyl}-5-[2-(phenylsulfonyl)ethyl]-1H-indole hydrobromide]","did not convert into Form A, amorphous or other crystalline forms or in any hydrated form",provided only Eletriptan hydrobromide form Beta,provided always Form Beta,not hygroscopic,0.1,
Br.CN1CCC[C@@H]1Cc1c[nH]c2ccc(CCS(=O)(=O)c3ccccc3)cc12 [Form Beta of Eletriptan hydrobromide],,,,,,not stable
